{"source": "paper PMC12344719", "about": "(Journal of Chemical Information and Modeling, 2025)", "key": {"[1]": {"system": "Vero cells", "settings": "African green monkey (Cercopithecus aethiops)"}, "[2]": {"assay": "in vitro", "settings": "African green monkey (Cercopithecus aethiops)"}, "[3]": {"system": "SARS-CoV-2", "assay": "microbe, parasite or virus in culture", "assay_type": "cell-based"}, "[4]": {"system": "SARS-CoV-2", "assay_type": "cell-based"}, "[5]": {"system": "Vero cells", "set-up": "method as in Yang et al.", "settings": "72 h condition without hypoxia, ref Yang et al.; cited from earlier work"}, "[6]": {"set-up": "method as in Liu et al.", "settings": "ref Liu et al.; cited from earlier work"}, "[7]": {"settings": "toxicological studies in animals; cited from earlier work"}, "[8]": {"system": "SARS-CoV-2 Mpro", "settings": "cited from earlier work"}}, "note": "Where two headings read alike, the source gives them in different places."}
{"smiles": "CCS(=O)(=O)N(C)c1ccc2sc(C(=O)NCCC3=CCCCC3)cc2c1", "note": "[MolPort-010-778-422]", "values": [{"measurement": "CC20", "setting": "[1]; 72 h", "value": 2.258, "unit": "µM"}, {"measurement": "CC50 at 72 h", "setting": "[2]", "value": 5.07, "unit": "µM"}, {"measurement": "SI (selectivity index)", "setting": "[3]", "value": 569.9}, {"measurement": "IC50", "setting": "[3]; Severe acute respiratory syndrome coronavirus 2, Vero, 2 h", "value": 0.0089, "unit": "µM"}, {"measurement": "log reduction (viral titer)", "setting": "[4]", "value": 5.6, "unit": "log"}]}
{"smiles": "COc1ccccc1OCCCOc1ccc([N+](=O)[O-])cc1Cl", "note": "[MolPort-002-201-288]", "values": [{"measurement": "CC20", "setting": "[1]", "value": 3.031, "unit": "µM"}, {"measurement": "CC50", "setting": "[2]", "value": 20.6, "unit": "µM"}]}
{"smiles": "CCN(CC)CCCC(C)Nc1ccnc2cc(Cl)ccc12", "note": "(stereo not shown) [chloroquine]", "values": [{"measurement": "CC50", "setting": "[5]", "value": 92.4, "unit": "µM"}, {"measurement": "CC50", "setting": "[6]", "value": 273, "unit": "µM"}]}
{"smiles": "CCOc1ccc2nc(C(=O)CCC(=O)OC(CCl)CCl)sc2c1", "note": "[MolPort-004-953-083]", "values": [{"measurement": "CC20", "setting": "[1]; 72 h", "value": 29.30, "unit": "µM"}, {"measurement": "CC50 at 72 h", "setting": "[2]", "value": 45.5, "unit": "µM"}]}
{"smiles": "CCN(CCO)CCCC(C)Nc1ccnc2cc(Cl)ccc12", "note": "(stereo not shown) [hydroxychloroquine]", "values": [{"measurement": "CC50", "setting": "[5]", "value": 56.2, "unit": "µM"}, {"measurement": "CC50", "setting": "[6]", "value": 250, "unit": "µM"}, {"measurement": "less toxic than chloroquine", "setting": "[7]", "value": "approximately 40%"}]}
{"smiles": "COc1cccc(SCC(=O)N(Cc2ccccn2)C2CCCCC2)c1", "note": "[MolPort-045-920-671]", "values": [{"measurement": "CC20", "setting": "[1]; 72 h", "value": 2.772, "unit": "µM"}, {"measurement": "CC50 at 72 h", "setting": "[2]", "value": 16.1, "unit": "µM"}]}
{"smiles": "Cc1cccc(C)c1NC(=O)CCCSCc1cccc(S(=O)(=O)N(C)C)c1", "note": "[MolPort-005-766-143]", "values": [{"measurement": "CC20", "setting": "[1]; 72 h", "value": 3.532, "unit": "µM"}, {"measurement": "CC50 at 72 h", "setting": "[2]", "value": 15.7, "unit": "µM"}]}
{"smiles": "O=C[C@H](C[C@@H]1CCNC1=O)NC(=O)[C@H](Cc1cccc(F)c1)NC(=O)c1cc2ccccc2[nH]1", "note": "[11b]", "values": [{"measurement": "IC50", "setting": "[8]", "value": 0.04, "unit": "µM"}]}
{"smiles": "CC(=O)c1[nH]c(C)c(C(=O)N(C)CCCOc2cccc(Cl)c2)c1C", "note": "[MolPort-046-186-743]", "values": [{"measurement": "CC20", "setting": "[1]; 72 h", "value": 7.583, "unit": "µM"}, {"measurement": "CC50 at 72 h", "setting": "[2]", "value": 27.6, "unit": "µM"}]}
{"smiles": "C=CCNC(=O)c1csc(-c2ccc(OCCC)cc2F)n1", "note": "[MolPort-006-606-981]", "values": [{"measurement": "CC20", "setting": "[1]", "value": 3.964, "unit": "µM"}, {"measurement": "CC50", "setting": "[2]", "value": 19.4, "unit": "µM"}]}
{"smiles": "CN(CCCCCc1cc(-c2cccc(F)c2)n[nH]1)C(=O)C(C)(C)C", "note": "[MolPort-009-093-282]", "values": [{"measurement": "CC20", "setting": "[1]", "value": 9.418, "unit": "µM"}, {"measurement": "CC50", "setting": "[2]", "value": 47.1, "unit": "µM"}]}
